Experimental data: patent EP4786474A1, “CRYSTALLINE FORM OF QUINAZOLINE DERIVATIVE AND PREPARATION METHOD THEREFOR” (Jiangsu Hengrui Pharmaceuticals Co., Ltd., priority 2023, dated 2025)

How the values were obtained:
[1] = test system: HER2 A775_G776insYVMA mutant Ba/F3 cells; assay: Ba/F3 cell proliferation assay (Celltiter-Glo); format: cell-based; details: 72 h incubation
Procedure: (§1) EGFR wild-type Ba/F3 cells (Cobioer, Cat. No. CBP73110) in the logarithmic growth phase were seeded into a 96-well plate at 2.5 × 10^3 cells/100 µL in a growth medium, and HER2 wild-type Ba/F3 cells (Cobioer, Cat. No. CBP73110) or HER2 A775_G776insYVMA mutant Ba/F3 cells (Cobioer, Cat. No. CBP73184) in the logarithmic growth phase were seeded into a 96-well plate at 5 × 10^3 cells/100 µL in a growth medium. The plates were placed in a cell incubator at 37 °C overnight. The next day, the compound diluted in a 3-fold gradient with a medium was added to the plates at 100 µL/well. All treatments were performed in triplicate. The plates were incubated in the cell incubator at 37 °C for another 72 h. Celltiter-Glo Luminescent cell viability assay was performed.
(§2) The cell proliferation rate corresponding to each well was calculated according to the following formula: proliferation% = (test compound well G3 - G0 average value)/(DMSO control well G3 average value - G0 average value) × 100. According to the proliferation rate and concentration corresponding to each gradient concentration well, a gradient curve for cell proliferation was fitted using Prism Graphpad software, and the GI50 (GI50 is defined as the compound concentration corresponding to a cell proliferation inhibition rate of 50%) of the compound was calculated.

[2] = test system: HER2 wild-type Ba/F3 cells; assay: Ba/F3 cell proliferation assay (Celltiter-Glo); format: cell-based; details: 72 h incubation
Procedure: as §1, §2

[3] = test system: EGFR wild-type Ba/F3 cells; assay: Ba/F3 cell proliferation assay (Celltiter-Glo); format: cell-based; details: 72 h incubation
Procedure: as §1, §2

[4] = Influencing factor stability study; format: physicochemical
Procedure: Samples of the crystal forms D, E, and H were spread in open containers and left to stand under light exposure (4500 Lux), high temperature (40 °C and 60 °C), and high humidity (RH 75% and RH 92.5%) conditions for 1 month to investigate their stability.

[5] = DVS (dynamic vapor sorption) hygroscopicity testing; format: physicochemical
Excerpt: According to the description of hygroscopicity characteristics and the definition of hygroscopic weight gain in "General Rule 9103, Guidelines for Hygroscopicity Trials for Pharmaceuticals" in the Chinese Pharmacopoeia, Volume IV, 2015 Edition: • deliquescent: sufficient water is absorbed to form a liquid; • extremely hygroscopic: the hygroscopic weight gain is not less than 15%; • hygroscopic: the hygroscopic weight gain is less than 15% but not less than 2%; • slightly hygroscopic: the hygroscopic weight gain is less than 2% but not less than 0.2%; • nonhygroscopic or practically nonhygroscopic: the hygroscopic weight gain is less than 0.2%.
DVS refers to dynamic vapor sorption: The analysis was performed using SMS DVS Advantage; at 25 °C, the humidity was changed as follows: 50%-95%-0%-95%-50%, in steps of 10% (5% for the last step) (specific humidity ranges are shown in corresponding patterns, and those listed here were used in most cases); the criterion was dm/dt being not greater than 0.002%.

[6] = Long-term/accelerated stability; format: physicochemical
Procedure: Samples of the crystal forms D, E, and H were left to stand under 25 °C/60% RH and 40 °C/75% RH conditions to investigate their stability: Table 30.

For `Cc1cc(Nc2ncnc3ccc(NC4=NC(C)(C)CO4)cc23)ccc1Oc1ccn2ncnc2c1` [Tucatinib, reference compound], the “HER2 A775_G776 ins YVMA/ BaF3 Imax %” value [1] was 100%.

In the case of `C=CC(=O)N1[C@@H]2CC[C@H]1C[C@@H](Oc1ccc3ncnc(Nc4ccc(Oc5ccn6ncnc6c5)c(C)c4F)c3c1)C2` [Example 1, 1-(endo-3-((4-((4-([1,2,4]Triazolo[1,5-a]pyridin-7-yloxy)-2-fluoro-3-methylphenyl)amino)quinazolin-6-yl)oxy)-8-azabicyclo[3.2.1]octan-8-yl)prop-2-en-1-one], the “HER2 WT/ BaF3 Imax %” value [2] was 100%, the “HER2 A775_G776 ins YVMA/ BaF3 Imax %” value [1] was 100% and the “EGFR WT/ BaF3 Imax %” value [3] was 100%.

For `C=CC(=O)N1[C@@H]2CC[C@H]1C[C@@H](Oc1ccc3ncnc(Nc4ccc(Oc5ccn6ncnc6c5)c(C)c4F)c3c1)C2` [Crystal form E, 1-(endo-3-((4-((4-([1,2,4]Triazolo[1,5-a]pyridin-7-yloxy)-2-fluoro-3-methylphenyl)amino)quinazolin-6-yl)oxy)-8-azabicyclo[3.2.1]octan-8-yl)prop-2-en-1-one], the Color and appearance ([4]; 40 °C, 1 month) was “White powder”, the Crystal form ([4]; 40 °C, 1 month) was “No change” and the “Purity (%)” value ([4]; 40 °C, 1 month) was 99.3%. The Color and appearance ([4]; 40 °C, 7 days) was “White powder”, the Crystal form ([4]; 40 °C, 7 days) was “No change” and the Color and appearance ([4]; 40 °C, 14 days) was “White powder”. The Crystal form ([4]; 40 °C, 14 days) was “No change”, the Color and appearance ([4]; 60 °C, 1 month) was “White powder” and the Crystal form ([4]; 60 °C, 1 month) was “No change”. The Color and appearance ([4]; 60 °C, 7 days) was “White powder”, the Crystal form ([4]; 60 °C, 7 days) was “No change” and the Color and appearance ([4]; 60 °C, 14 days) was “White powder”. For the same molecule, the Crystal form ([4]; 60 °C, 14 days) was “No change”, the Color and appearance ([4]; 75% RH, 1 month) was “White powder” and the Crystal form ([4]; 75% RH, 1 month) was “No change”. The Color and appearance ([4]; 75% RH, 7 days) was “White powder”, the Crystal form ([4]; 75% RH, 7 days) was “No change” and the Color and appearance ([4]; 75% RH, 14 days) was “White powder”. For the same molecule, the Crystal form ([4]; 75% RH, 14 days) was “No change”, the Color and appearance ([4]; 92.5% RH, 1 month) was “White powder” and the Crystal form ([4]; 92.5% RH, 1 month) was “No change”. For the same molecule, the Color and appearance ([4]; 92.5% RH, 7 days) was “White powder”, the Crystal form ([4]; 92.5% RH, 7 days) was “No change” and the Color and appearance ([4]; 92.5% RH, 14 days) was “White powder”. The Crystal form ([4]; 92.5% RH, 14 days) was “No change”, the Color and appearance ([4]; 4500 Lux, 1 month) was “White powder” and the Crystal form ([4]; 4500 Lux, 1 month) was “No change”. For the same molecule, the “Purity (%)” value ([4]; 4500 Lux, 1 month) was 99.4%, the Color and appearance ([4]; 4500 Lux, 7 days) was “White powder” and the Crystal form ([4]; 4500 Lux, 7 days) was “No change”. The Color and appearance ([4]; 4500 Lux, 14 days) was “White powder”, the Crystal form ([4]; 4500 Lux, 14 days) was “No change” and the Color and appearance ([4]; Initial, 0) was “White powder”. For the same molecule, the Crystal form ([4]; Initial, 0) was “Crystal form E”, the “physical and chemical stability” value ([4]; light exposure (4500 Lux), high temperature (40 °C and 60 °C), high humidity (RH 75% and RH 92.5%), 30 days) was “Conclusion: Standing under light exposure (4500 Lux), high temperature (40 °C and 60 °C), and high humidity (RH 75% and RH 92.5%) conditions for 30 days, the crystal form E exhibited good physical and chemical stability” and the hygroscopic weight gain ([5]; accelerated experimental conditions, 70% RH) was “about 0.15%”. The “crystal form re-identified after DVS testing” value ([5]; after DVS testing) was “the crystal form did not change”, the hygroscopic weight gain ([5]; extreme conditions, 90% RH) was “about 0.25%” and the hygroscopic weight gain ([5]; normal storage conditions, 25 °C and 60% RH) was “about 0.11%”. The Color and appearance ([6]; 25 °C/60% RH, 1 month) was “White powder”, the Crystal form ([6]; 25 °C/60% RH, 1 month) was “No change” and the Color and appearance ([6]; 25 °C/60% RH, 2 months) was “White powder”. For the same molecule, the Crystal form ([6]; 25 °C/60% RH, 2 months) was “No change”, the Color and appearance ([6]; 25 °C/60% RH, 3 months) was “White powder” and the Crystal form ([6]; 25 °C/60% RH, 3 months) was “No change”. The Color and appearance ([6]; 25 °C/60% RH, 6 months) was “White powder”, the Crystal form ([6]; 25 °C/60% RH, 6 months) was “No change” and the Color and appearance ([6]; 25 °C/60% RH, 14 days) was “White powder”. The Crystal form ([6]; 25 °C/60% RH, 14 days) was “No change”, the Color and appearance ([6]; 40 °C/75% RH, 1 month) was “White powder” and the Crystal form ([6]; 40 °C/75% RH, 1 month) was “No change”. The Color and appearance ([6]; 40 °C/75% RH, 2 months) was “White powder”, the Crystal form ([6]; 40 °C/75% RH, 2 months) was “No change” and the Color and appearance ([6]; 40 °C/75% RH, 3 months) was “White powder”. For the same molecule, the Crystal form ([6]; 40 °C/75% RH, 3 months) was “No change”, the Color and appearance ([6]; 40 °C/75% RH, 6 months) was “White powder” and the Crystal form ([6]; 40 °C/75% RH, 6 months) was “No change”. For the same molecule, the Color and appearance ([6]; 40 °C/75% RH, 14 days) was “White powder”, the Crystal form ([6]; 40 °C/75% RH, 14 days) was “No change” and the Color and appearance ([6]; Initial, 0) was “White powder”. The Crystal form ([6]; Initial, 0) was “Crystal form E” and the “physical and chemical stability” value ([6]; long-term/accelerated conditions) was “Conclusion: Under long-term/accelerated conditions, the crystal form E exhibited good physical and chemical stability”.
